{"source": "patent US11912713B2", "about": "“7-membered aza-heterocyclic containing delta-opioid receptor modulating compounds, methods of using and making the same” (Trevena, Inc., priority 2017, dated 2024)", "key": {"[1]": {"tested_on": "adult male C57 mice", "assay": "Tail suspension test (TST)", "type": "in vivo, mouse", "procedure": "The experiments were performed using adult male C57 mice (6-10 weeks of age, 20-30 g, Hilltop Lab, PA). The mice were housed in standard rodent cages with stainless steel mesh wire bar lids in groups of 4 with controlled temperature and light cycle (6:00 a.m.-6:00 p.m.). Animals were given free access to food (Harlan Teklad Global 18% protein (Madison, WI)) and water during a minimum 2-day habituation period to the laboratory. Animals that were used in the study were handled, housed, and sacrificed (using compressed CO2) in accord with the current NIH guidelines regarding the use and care of laboratory animals, and all applicable local, state, and federal regulations and guidelines. Animals are identified by cage number, and by markings applied to the proximal tip of the tail using a permanent marker. Group sizes (n=8, and therefore 30-50 animals per study) provide reliable estimates of treatment effects, and this species and strain of mouse has been recognized as appropriate for pharmacology studies.\nTo measure efficacy of the compounds the compounds were tested using a tail suspension test. The tail suspension test is a behavioral test used to evaluate the efficacy of antidepressant drugs in rodents. In the TST, mice (n=8/group) were suspended by the tail with tape approximately 30-50 cm above the lab bench. Mice are positioned such that the base of their tail is perpendicular to the lab bench. Each mouse is given 1 trial that last 6 minutes. The total duration of immobility is calculated as the percentage of time that the mouse is immobile. The duration of immobility is the main parameter measured. This is calculated from the cumulated time during which the animals is absent of initiated movements including passive swaying. When antidepressant drugs are administered, immobility is decreased by a variety of classes of antidepressant drugs. One or more of the compounds show antidepressant activity."}, "[2]": {"molecular_target": "T1, delta-opioid receptor (hDOR) (Homo sapiens, UniProt P41143)", "T1 sequence (P41143 whole entry)": "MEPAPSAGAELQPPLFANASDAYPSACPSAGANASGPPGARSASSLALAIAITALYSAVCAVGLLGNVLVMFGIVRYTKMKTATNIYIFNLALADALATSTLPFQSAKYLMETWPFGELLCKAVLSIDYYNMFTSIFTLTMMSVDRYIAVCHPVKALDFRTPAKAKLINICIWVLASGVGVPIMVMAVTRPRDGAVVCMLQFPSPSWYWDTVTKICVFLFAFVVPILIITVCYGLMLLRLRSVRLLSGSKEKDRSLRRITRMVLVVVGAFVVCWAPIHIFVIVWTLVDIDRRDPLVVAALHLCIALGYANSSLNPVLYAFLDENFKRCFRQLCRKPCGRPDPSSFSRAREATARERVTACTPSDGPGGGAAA", "assay": "cAMP assay (receptor G-protein mediated response)", "type": "cell-based", "details": "efficacy, normalized against DPDPE", "procedure": "(§1) Clonal stable lines were subsequently selected under G418.\n(§2) Cell lines were grown adherently in Minimum Essential Media (Cellgro cat #10-010-CM) containing 10% fetal bovine serum (Hyclone cat #SH30071.03), 4 mM glutamine (Cellgro cat #25-005-CI), 150 ug/ml hygromycin B (Cellgro cat #30-240-CR), 150 ug/ml G418 (Cellgro cat #30-234-CR), and 50 u/50 ug penicillin/streptomycin (Lonza cat #17-603E). Prior to the assay cells were removed from the flasks with CellStripper (Cellgro cat #25-056-CI), repeatedly pipetted to disperse cells, and spun at low speed for 5 min at room temperature. Cells were then resuspended at 250,000 cells/ml in growth media and plated at 5,000 cells/well in 384 well plates (Greiner part #784080). Plates were incubated overnight at 37° C., 5% CO2 in a humidified incubator.\nReceptor G-protein mediated responses were determined by measuring changes in intracellular cAMP using CisBio HTRF cAMP HiRange kit (cat #62AM6PEJ) based on time-resolved fluorescence resonance energy transfer (TR-FRET). […] Following a 30 minute incubation at 37° C. the components of the cAMP HiRange kit were added as directed and the plates were read after 1 hour on a BMG PheraStar plate reader. Responses were measured as the ratio of fluorescence at 665 nm/620 nm per manufacturer's instructions."}, "[3]": {"molecular_target": "T1, delta-opioid receptor (hDOR)", "assay": "β-Arrestin recruitment assay (PathHunter)", "type": "cell-based", "procedure": "as §1, §2\nReceptor mediated beta-arrestin recruitment was determined using the DiscoveRx β-arrestin PathHunter Detection kit (cat #93-0001). In this system, β-Arrestin is fused to an N-terminal deletion mutant of β-galactosidase (termed the enzyme acceptor of EA) and the GPCR of interest is fused to a smaller (42 amino acids), weakly complementing fragment termed ProLink™. […] Following a 60 minute incubation at 37° C. the components of the DiscoveRx β-arrestin PathHunter Detection kit were added as directed and the plates were read after 1 hour on a BMG PheraStar plate reader."}, "[4]": {"tested_on": "mu- and kappa-opioid receptors", "details": "versus mu- and kappa-opioid receptors", "text": "Plasmids encoding delta-opioid receptor (Accession NP_000902), mu-opioid receptor (Accession NP_000905) and kappa-opioid receptor (Accession Assession NP_000903) were generated in the pCMV-Prolink backbone and transfected into an EA-arrestin parental human embryonic kidney (HEK-293) cell line from DiscoveRx Corporation. Clonal stable lines were subsequently selected under G418.\nThe values are normalized against DPDPE ([D-Pen2,5]Enkephalin, [D-Pen2,D-Pen5]Enkephalin), which is a known agonist of the receptor. Compound selectivity was also evaluated by testing compounds on the mu- and kappa-opioid receptors, the values from which were normalized against DAMGO ([D-Ala2, N-Me-Phe4, Gly5-ol]-Enkephalin acetate salt) and U69,593, respectively."}}, "data": [{"smiles": "CCCN1CC[C@@H](COc2ccc3c(c2)C(=O)NC3)[C@H](c2ccc(OC)cc2)CC1", "note": "(racemic) [Compound C0004, (±)-6-{((trans)-5-(4-methoxyphenyl)-1-propylazepan-4-yl]methoxy}-2,3-dihydro-1H-isoindol-1-one]", "values": [{"measurement": "Active TST Dose", "setting": "[1]; route sc", "value": "≤30", "unit": "mg/kg"}]}, {"smiles": "CCCN1C2CCC1CC(c1ccc(OC)cc1)=C(COc1ccc3c(c1)C(=O)NC3)C2", "note": "(racemic) [Compound C0066, 6-{[4-(4-methoxyphenyl)-9-propyl-9-azabicyclo[4.2.1]non-3-en-3-yl]methoxy}-2,3-dihydro-1H-isoindol-1-one]", "values": [{"measurement": "Active TST Dose", "setting": "[1]; route sc", "value": "≤10", "unit": "mg/kg"}]}, {"smiles": "CCCN1C2CCC1CC(c1ccc(OC)cc1)C(CCc1ccc3c(c1)C(=O)NC3)C2", "note": "(stereo not drawn) [Compound C0084, 6-{2-((cis)-4-(4-methoxyphenyl)-9-propyl-9-azabicyclo[4.2.1]nonan-3-yl]ethyl}-2,3-dihydro-1H-(trans)-isoindol-1-one]", "values": [{"measurement": "Active TST Dose", "setting": "[1]; route sc", "value": "≤30", "unit": "mg/kg"}]}, {"smiles": "COc1ccc(C2CCN(CCc3ccccc3)C(C)CC2COc2ccc3c(c2)C(=O)NC3)cc1", "note": "(stereo not drawn) [Compound C0457, 6-{[(trans)-5-(4-methoxyphenyl)-2-methyl-1-(2-phenylethyl)azepan-4-yl]methoxy}-2,3-dihydro-1H-isoindol-1-one]", "values": [{"measurement": "Active TST Dose", "setting": "[1]; route po", "value": "≤60", "unit": "mg/kg"}]}, {"smiles": "Fc1ccc([C@@H]2CCNC[C@H]2COc2ccc3c(c2)OCO3)cc1", "note": "[Paroxetine]", "values": [{"measurement": "hDOR G Span", "setting": "[2]", "value": "<100"}, {"measurement": "hDOR B Span", "setting": "[3]; efficacy, normalized against DPDPE", "value": "<100"}, {"measurement": "EC50", "setting": "[3]; β-arrestin recruitment, HEK-293 cells, read-out: hDOR B pEC50 (converted)", "value": "> 1000", "unit": "nM"}, {"measurement": "selectivity for the delta-opioid receptor", "setting": "[4]", "value": "non-selectivity"}]}]}
